# ± gives the standard deviation of the averaged measurements.
# System: MCF7
# Experiment: HRG-induced Akt activation (dPAkt = log2 pAkt/Akt HRG-stimulated minus log2 pAkt/Akt basal) (log2 ratio difference); higher = stronger HRG-induced Akt(T308) phosphorylation
# Details: miRNA mimic concentration 10 nM; time after transfection 72 h; heregulin 10 ng/ml; stimulation time 1 h
# In short: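 MCF7 cells were plated […] in 96-well plates and transfected in two biological replicates with a library of 879 miRNA mimics (10 nM final) using Lipofectamine RNAiMax; 72 h later they were stimulated for 1 h with 10 ng/ml heregulin-beta1 or left unstimulated. After fixation in 4% PFA, phospho-Akt(T308) and total Akt were measured by In-Cell Western on an Odyssey, with signals corrected for column-wise fixation decay. Heregulin-induced Akt activation is the stimulated minus unstimulated value of the log ratio of phospho-Akt to total Akt, averaged over replicates. That log ratio is log2(pAkt/Akt).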
row,Sequence,HRG-induced Akt activation (log2)
1,AUUGAUCAUCGACACUUCGAACGCAAU,1.383 ± 0.0097
2,AAAACCGUCUAGUUACAGUUGU,1.26 ± 0.26
3,AAUCGUACAGGGUCAUCCACUU,1.46 ± 0.051
4,UUUCAAGCCAGGGGGCGUUUUUC,0.989 ± 0.21
5,AUAAUACAUGGUUAACCUCUUU,1.2 ± 0.064
6,CCCAGUGUUCAGACUACCUGUUC,1.28 ± 0.6
7,CAGCCACAACUACCCUGCCACU,1.94 ± 0.99
8,GCUGGUUUCAUAUGGUGGUUUAGA,1.82 ± 0.049
9,CAAAAGUAAUUGUGGAUUUUGU,1.5 ± 0.065
10,GGGCGCCUGUGAUCCCAAC,1.62 ± 0.015
11,UGGAUUUUUGGAUCAGGGA,2.21 ± 0.15
12,CGGCAACAAGAAACUGCCUGAG,1.46 ± 0.68
13,UUGUACAUGGUAGGCUUUCAUU,1.7 ± 0.31
14,UGGCAGUGUAUUGUUAGCUGGU,2.12 ± 0.35
15,AAAAGCUGGGUUGAGAGGGCAA,1.61 ± 0.092
16,UCCAGUACCACGUGUCAGGGCCA,0.976 ± 0.31
17,UGUGUCACUCGAUGACCACUGU,2.42 ± 0.089
18,AAACAAACAUGGUGCACUUCUU,1.48 ± 0.08
19,UCACUGUUCAGACAGGCGGA,2.02 ± 0.07
20,AGUGGGGAACCCUUCCAUGAGG,1.94 ± 0.25
21,AUGUAUAAAUGUAUACACAC,1.42 ± 0.5
22,GUGAGGACUCGGGAGGUGG,1.19 ± 0.87

row,Sequence,HRG-induced Akt activation (log2)
1,ACUGUUGCUAAUAUGCAACUCU,0.931 ± 0.72
2,CCUCUUCCCCUUGUCUCUCCAG,1.52 ± 0.031
3,UAAUGCCCCUAAAAAUCCUUAU,0.932 ± 0.16
4,UAUACAAGGGCAGACUCUCUCU,1.48 ± 0.24
5,CUGUAAUAUAAAUUUAAUUUAUU,1.42 ± 0.037
6,GACUGACACCUCUUUGGGUGAA,1.49 ± 0.18
7,UGGAGUGUGACAAUGGUGUUUG,2.527 ± 0.012
8,AGGCGGGGCGCCGCGGGACCGC,1.22 ± 0.12
9,UAGCACCAUUUGAAAUCAGUGUU,1.47 ± 0.15
10,UUGCAUAUGUAGGAUGUCCCAU,1.32 ± 0.079
11,CUGGGAGGUGGAUGUUUACUUC,0.961 ± 0.055
12,CACUAGAUUGUGAGCUCCUGGA,1.69 ± 0.57
13,AAACUCUACUUGUCCUUCUGAGU,0.945 ± 0.39
14,UACCACAGGGUAGAACCACGG,1.43 ± 0.074
15,GUCAGCGGAGGAAAAGAAACU,1.47 ± 0.037
16,UUCACAGUGGCUAAGUUCCGC,1.73 ± 0.22
17,AGGGAGGGACGGGGGCUGUGC,1.89 ± 0.16
18,AGGGCCCCCCCUCAAUCCUGU,1.95 ± 0.39
19,AGUUCUUCAGUGGCAAGCUUUA,0.966 ± 0.66
20,AGCUGUCUGAAAAUGUCUU,1.08 ± 0.3
21,GGGGGUCCCCGGUGCUCGGAUC,1.7 ± 0.064
22,UCAAAUGCUCAGACUCCUGUGGU,1.63 ± 0.19

row,Sequence,HRG-induced Akt activation (log2)
1,AGGCAAGAUGCUGGCAUAGCU,1.18 ± 0.13
2,UGAGGUAGUAAGUUGUAUUGUU,1.6 ± 0.43
3,GUGACAUCACAUAUACGGCAGC,1.08 ± 0.31
4,UCUUUGGUUAUCUAGCUGUAUGA,1.96 ± 0.15
5,AGGCACGGUGUCAGCAGGC,1.2 ± 0.26
6,CUGGGAUCUCCGGGGUCUUGGUU,2 ± 0.076
7,AUUUGUGCUUGGCUCUGUCAC,0.917 ± 0.31
8,UUCACAUUGUGCUACUGUCUGC,1.59 ± 0.03
9,AUCACAUUGCCAGGGAUUACC,1.54 ± 0.03
10,ACUGCCCCAGGUGCUGCUGG,1.25 ± 0.16
11,AGGGGUGCUAUCUGUGAUUGA,1.68 ± 0.19
12,UUCAAGUAAUUCAGGAUAGGU,1.06 ± 0.39
13,ACUUGUAUGCUAGCUCAGGUAG,1.13 ± 0.012
14,UGAGGUAGUAGGUUGUAUAGUU,1.26 ± 0.07
15,UCUCGCUGGGGCCUCCA,1.22 ± 0.36
16,UGAGACCUCUGGGUUCUGAGCU,1.95 ± 0.023
17,AUCAUGAUGGGCUCCUCGGUGU,1.41 ± 0.22
18,CGUCUUACCCAGCAGUGUUUGG,1.73 ± 0.13
19,AAAAGUGCUUACAGUGCAGGUAG,1.2 ± 0.069
20,UGUAAACAUCCUCGACUGGAAG,1.22 ± 0.25
21,UUUUGCGAUGUGUUCCUAAUAU,1.67 ± 0.12
22,ACUGGGGGCUUUCGGGCUCUGCGU,1.6 ± 0.11

row,Sequence,HRG-induced Akt activation (log2)
1,CUACAAAGGGAAGCCCUUUC,1.62 ± 0.21
2,GGGGUUCCUGGGGAUGGGAUUU,1.21 ± 0.3
3,GCCCUCCGCCCGUGCACCCCG,1.17 ± 0.14
4,AGGGUGUUUCUCUCAUCUCU,2.04 ± 0.21
5,UACAGUAUAGAUGAUGUACU,1.39 ± 0.57
6,CCAAUAUUACUGUGCUGCUUUA,1.45 ± 0.28
7,CCCCAGGGCGACGCGGCGGG,2.057 ± 0.012
8,AAAAGUAAUCGCGGUUUUUGUC,1.2 ± 0.063
9,UUAUGGUUUGCCUGGGACUGAG,1.74 ± 0.28
10,UAAUACUGCCUGGUAAUGAUGA,1.65 ± 0.49
11,AAAAGUACUUGCGGAUUUUGCU,1.58 ± 0.21
12,GAAGGCGCUUCCCUUUGGAGU,1.41 ± 0.095
13,UCGACAGCACGACACUGCCUUC,1.4 ± 0.42
14,CAAAGAGGAAGGUCCCAUUAC,2.01 ± 0.3
15,CAGGCCAUAUUGUGCUGCCUCA,1.88 ± 0.66
16,CAAAGCGCUCCCCUUUAGAGGU,1.02 ± 0.045
17,AAGUGUGCAGGGCACUGGU,2.33 ± 0.23
18,GAUGAGCUCAUUGUAAUAUGAG,1.71 ± 0.24
19,UAAUCUCAGCUGGCAACUGUGA,1.38 ± 0.37
20,AUCUGGAGGUAAGAAGCACUUU,1.83 ± 0.33
21,UGGGCGUAUCUGUAUGCUA,1.83 ± 0.1
22,AAUCCUUUGUCCCUGGGUGAGA,1.76 ± 0.094

row,Sequence,HRG-induced Akt activation (log2)
1,UCUACAGUGCACGUGUCUCCAG,1.65 ± 0.062
2,AAGCCUGCCCGGCUCCUCGGG,1.81 ± 0.26
3,CAGUAACAAAGAUUCAUCCUUGU,2.1 ± 0.17
4,CAGGUCGUCUUGCAGGGCUUCU,1.44 ± 0.68
5,CAGUGCAAUGUUAAAAGGGCAU,0.895 ± 0.16
6,ACUGGACUUAGGGUCAGAAGGC,2.01 ± 0.38
7,GAGCCAGUUGGACAGGAGC,1.77 ± 0.38
8,UUUGGCACUAGCACAUUUUUGCU,1.535 ± 0.007
9,CUUAUCAGAUUGUAUUGUAAUU,1.87 ± 0.024
10,GGUGCAGUGCUGCAUCUCUGGU,1.28 ± 0.0016
11,AAAUCUCUGCAGGCAAAUGUGA,1.19 ± 0.11
12,AACAUUCAUUGUUGUCGGUGGGU,2.236 ± 0.017
13,AACUGGAUCAAUUAUAGGAGUG,1.79 ± 0.16
14,CUCCUGACUCCAGGUCCUGUGU,1.43 ± 0.33
15,UGUGCAAAUCUAUGCAAAACUGA,0.8263 ± 0.0053
16,UUGAAAGGCUAUUUCUUGGUC,2.39 ± 0.036
17,UUCCCUUUGUCAUCCUAUGCCU,0.793 ± 0.043
18,CGAAAACAGCAAUUACCUUUGC,1.364 ± 0.0018
19,UUUGGUCCCCUUCAACCAGCUG,1.54 ± 0.13
